Results reported in patent publication US20220257557A1, “PHARMACEUTICAL COMPOSITION FOR PREVENTING OR TREATING NEUROLOGICAL DISEASES” (GLACEUM INC., priority 2019, published 2022).

Assays:
RAW264.7 cells = assay: iNOS and COX-2 expression after LPS (Western blot); type: cell-based; details: 3 h pretreatment (Table 3 amounts), LPS 1 μg/ml 24 h
In short: (§1)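 RAW264.7 or BV2 cells (5×10^5 cells/well) in DMEM with 10% FBS were pretreated with compound, then stimulated with 1 μg/ml LPS for 24 h. iNOS and COX-2 expression by Western blot; NO and PGE2 production measured. Compound toxicity checked by MTT.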

BV2 cells = assay: iNOS and COX-2 expression after LPS (Western blot); type: cell-based; details: 3 h pretreatment (Table 3 amounts), LPS 1 μg/ml 24 h
In short: as §1

[1] = biological target: T1, rePON1 (PON1, paraoxonase 1) (Homo sapiens, UniProt P27169); assay: Prevention of inhibition of PON1 activity by oxidized linolenic acid (TBBL substrate); type: biochemical
T1 construct: purchased Thermo Corp. RP-75678
T1 sequence (P27169 whole entry): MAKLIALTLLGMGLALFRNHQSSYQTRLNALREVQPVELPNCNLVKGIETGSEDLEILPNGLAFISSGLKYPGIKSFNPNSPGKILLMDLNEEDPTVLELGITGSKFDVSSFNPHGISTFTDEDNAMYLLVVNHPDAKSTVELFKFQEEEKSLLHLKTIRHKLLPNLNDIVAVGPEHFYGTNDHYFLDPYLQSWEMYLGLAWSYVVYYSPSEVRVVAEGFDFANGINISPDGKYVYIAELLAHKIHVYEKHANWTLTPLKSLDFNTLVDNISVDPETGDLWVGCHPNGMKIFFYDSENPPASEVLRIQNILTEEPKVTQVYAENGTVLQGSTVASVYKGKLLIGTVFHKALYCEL
In short: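 Recombinant PON1 preincubated 30 min at room temperature with compound (30 μM) in 50 mM Tris-HCl/1 mM CaCl2, then exposed to oxidized linolenic acid for 2 h. Activity read with TBBL and DTNB at 420 nm, 37 °C, every 2 min for 1 h, expressed relative to uninhibited PON1.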

PON2 mRNA = assay: Relative expression level of PON2 mRNA in liver of DIO mice (real-time PCR); type: in vivo, C57BL/6J DIO mice; details: 100 mg/kg orally once daily for 6 weeks, 60% fat diet, FIG. 1a
Protocol: 14-Week-old C57BL/6J DIO (Diet Induced Obesity) mice (The Jackson Laboratory, USA) were purchased. The normal control group was fed a 10% fat diet for 3 weeks, and the DIO control group was fed a 60% fat diet for 3 weeks. In addition, the Formula III-1 compound-administered group was fed a 60% fat diet for 3 weeks, and then 100 mg/kg of the compound of Formula III-1 was orally administered thereto once daily for 6 weeks.
The mice of the normal control group, the DIO control group and the Formula III-1 compound-administered group were euthanized, and the liver tissues were extracted therefrom, washed with a PBS solution containing PIC (protease inhibitor cocktail), sectioned to a size of 0.2 to 0.5 g, and stored at −196° C. until the experiment.
The following experiment was conducted using the liver tissue sections from the normal control group, the DIO control group and the Formula III-1 compound-administered group.
The relative expression level of PON2 mRNA was analyzed using real-time PCR. Specifically, trizol (Invitrogen, Carlsbad, Calif., USA) was added to the liver tissue which was then minced using a homogenizer, and total RNA was extracted therefrom. […]

CCOc1ccc(C2COc3c(ccc4c3CCC(C)(C)O4)C2)c(O)c1 (centres unmarked) [Formula III-1, 2-(8,8-dimethyl-2,3,4,8,9,10-hexahydropyrano[2,3-f]chromen-3-yl)-5-ethoxyphenol]
expression level of COX-2 (RAW264.7 cells): concentration-dependently decreased
expression level of iNOS (RAW264.7 cells): concentration-dependently decreased
expression level of COX-2 (BV2 cells): concentration-dependently decreased
expression level of iNOS (BV2 cells): concentration-dependently decreased
activity at 30 µM ([1]; 30 μM compound with rePON1 30 min, then oxidized linolenic acid 2 h, TBBL substrate, normal control 100, negative control 73.64): 89%
extent to which inhibition of rePON1 activity was prevented, compared with glabridin ([1]; compound 30 μM vs glabridin 30 μM, result in words): greater
inhibition of rePON1 activity by oxidized linolenic acid ([1]; compound 30 μM, result in words): prevented
expression level of PON2 mRNA compared with normal control group (PON2 mRNA): higher
